Values after ≈ are worked out from the molar mass of the structure shown. Square brackets hold non-standard residues; d marks the D form. Peptide text beside a SMILES is read from it.
Legend:
E. coli DH5a = assay type: cell-based; conditions: DH5a
How it was run: (§1)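 First, peptides in 10 mM phosphate pH 7.2 with 0.03% LB meet bacteria (~5×10^6 CFU/ml). Second, incubation runs 3 h at 37 °C. Third, LB is added and plates grow overnight before OD600 reading.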

B. cereus [1] = assay type: cell-based; conditions: pH 7.2
How it was run: as §1

bacterial strains = assay: organism not typed; assay type: cell-based
Procedure: (§2) Three preferred peptides G11.46, G12.21 and G14.15, discussed above, were further tested for antimicrobial efficacy under various conditions using the 10% FCS/DMEM assay as described under CFU assay. The incubation times with the bacteria and peptide was three hours, at which time the bacteria were diluted and plated on agar. […] The MIC for each compound is highlighted.
Table 9 below repeats some data presented above in Tables 6, 7, and 8.

[2] = Degree of helicity by circular dichroism; assay type: physicochemical
Procedure: For designing analogues of the present sequences, as taught herein, the Table also presents data on the degree of helicity of the active peptides, as measured by circular dichroism. It should be noted that a number of the active peptides listed in the figure are not alpha helices at all. At least one peptide tested was considered to be a random coil, with no detectible secondary structure evident in the circular dichroism measurement.
The MIC values are for E. coli in 10 mM phosphate buffer. The peptides were derived by the inventors from granulysin helix 3. […] It contains an equal number of hydrophobic and positively charged amino acids, can adapt an αhelical structure, and is very amphipathic. In contrast, the remaining 3 peptides all retain activity in DMEM even in the presence of serum. These peptides contain more positive residues than hydrophobic residues. G12.21 contains 2 proline residues, G11.46 is based on a modification of the helix three sequence (RRVSRRFMRR) (SEQ ID NO: 91) with a 5 arginine extension at the NH2 terminus, and G14.15 includes loop 2/RRVSRRFMRR (SEQ ID NO: 91).

Salmonella = assay type: cell-based, S. typhimurium; conditions: pH 7.2
How it was run: as §1

Staphylococcus aureus = assay: CFU assay in 10% FCS/DMEM; assay type: cell-based; conditions: 3 hrs
Procedure: (§3) The CFU assay is the “gold standard” for evaluating antibiotics. Briefly, bacteria are grown overnight in rich medium, such as LB, and then diluted and grown in log phase for 2-4 hours. Cultures are set up as above, with the initial culture media being 10 mM phosphate buffer/0.03% LB; DMEM or RPMI; or DMEM or RPMI plus 10% serum (fetal calf, human, or mouse). After various periods of time, but generally 3 hours or less, aliquots are removed, diluted in LB at various dilutions, and plated on LB agar plates. Plates are incubated overnight at 37° C. and counted on an automatic colony counter.
as §2

E. coli = assay: CFU assay in 10% FCS/DMEM; assay type: cell-based; conditions: 3 hrs
Procedure: as §3, §2

B. cereus [3] = assay: CFU assay in 10% FCS/DMEM; assay type: cell-based; conditions: 3 hrs
Procedure: as §3, §2

Salmonella typhimurium = assay: CFU assay in 10% FCS/DMEM; assay type: cell-based; conditions: 3 hrs
Procedure: as §3, §2

[4] = test system: antibiotic resistant bacteria obtained from clinical isolates; assay: Susceptibility of antibiotic resistant clinical isolates in DMEM with or without serum; assay type: cell-based
Procedure: In addition to the data given above, the susceptibility of a panel of antibiotic resistant bacteria obtained from clinical isolates was tested. All of these are killed by the G11.46, G12.21, and G14.15 in DMEM with or without serum.

candida albicans SC5314 = assay: Percent survival of Candida albicans in phosphate buffer; assay type: cell-based; set-up: dose or concentration left out as unconfirmed; conditions: 37° C., 90 min. incubation
Excerpt: Germ tube formation is essential to Candida toxicity, so agents that prevent this (even in the absence of killing the organism) could have significant activity in vivo.

For `CSCC[C@H](NC(=O)[C@H](Cc1ccccc1)NC(=O)[C@@H](CCCNC(=N)N)NC(=O)[C@@H](CCCNC(=N)N)NC(=O)[C@H](CO)NC(=O)[C@@H](NC(=O)[C@@H](CCCNC(=N)N)NC(=O)[C@@H](CCCNC(=N)N)NC(=O)[C@@H](CCCNC(=N)N)NC(=O)[C@@H](CCCNC(=N)N)NC(=O)[C@@H](CCCNC(=N)N)NC(=O)[C@@H](CCCNC(=N)N)NC(=O)[C@H](N)CCCNC(=N)N)C(C)C)C(=O)N[C@H](CCCNC(=N)N)C(=O)N[C@H](CCCNC(=N)N)C(=O)O` [Peptide G11.46, rrrrrrrVSrrFMrr] (H-[dR][dR][dR][dR][dR][dR][dR]VS[dR][dR]FM[dR][dR]-OH; N-terminus and C-terminus assumed), the MIC (E. coli DH5a) was 0.8 µM (≈ 1.76 µg/mL), the “E. coli DH5a MIC” value (E. coli DH5a; pH 7.2) was 0.8 µM and the IC50 (E. coli DH5a; pH 7.2) was 100 nM. For the same compound, the “B. cereus MIC” value (B. cereus [1]) was 0.35 µM, the IC50 (B. cereus [1]) was 200 nM and the MIC (bacterial strains; ATCC#25922, 3 h) was 0.32 to 0.63 µM. For the same compound, the MIC (bacterial strains; ATCC#29213, 3 h) was 0.04 to 0.08 µM, the MIC (bacterial strains; ATCC#53522, 3 h) was 0.02 µM (≈ 0.044 µg/mL) and the MIC (bacterial strains; SL1344, 3 h) was 0.63 to 1.25 µM. The “% α-helix” value ([2]; Table 4) was 0%, the secondary structure ([2]; aqueous solution or TFE where stated) was “random coils in aqueous solution or in TFE” and the IC50 (Salmonella) was 210 nM. The “Salmonella MIC” value (Salmonella) was 0.7 µM, the “% Survival (CFU Assay)” value (Staphylococcus aureus; 0.005 μM) was 19.9% and the “% Survival (CFU Assay)” value (Staphylococcus aureus; 0.01 μM) was 8.04%. The “% Survival (CFU Assay)” value (Staphylococcus aureus; 0.02 μM) was 2.3%, the “% Survival (CFU Assay)” value (Staphylococcus aureus; 0.04 μM) was 0.84% and the “% Survival (CFU Assay)” value (Staphylococcus aureus; 0.08 μM) was 0.2%. The “% Survival (CFU Assay)” value (Staphylococcus aureus; 0.16 μM) was 0.02%, the “% Survival (CFU Assay)” value (E. coli; 0.01 μM) was 98.89% and the “% Survival (CFU Assay)” value (E. coli; 0.02 μM) was 166.22%. For the same compound, the “% Survival (CFU Assay)” value (E. coli; 0.04 μM) was 132.25%, the “% Survival (CFU Assay)” value (E. coli; 0.08 μM) was 89.24% and the “% Survival (CFU Assay)” value (E. coli; 0.16 μM) was 31.77%. The “% Survival (CFU Assay)” value (E. coli; 0.32 μM) was 2.02%, the “% Survival (CFU Assay)” value (E. coli; 0.63 μM) was <0.002% and the “% Survival (CFU Assay)” value (E. coli; 1.25 μM) was <0.002%. For the same compound, the “% Survival (CFU Assay)” value (B. cereus [3]; 0.005 uM) was 103.49%, the “% Survival (CFU Assay)” value (B. cereus [3]; 0.01 uM) was 44.62% and the “% Survival (CFU Assay)” value (B. cereus [3]; 0.02 uM) was <0.5%. The “% Survival (CFU Assay)” value (B. cereus [3]; 0.04 uM) was 0.02%, the “% Survival (CFU Assay)” value (B. cereus [3]; 0.08 uM) was 0.002% and the “% Survival (CFU Assay)” value (B. cereus [3]; 0.16 uM) was 0.002%. For the same compound, the “% Survival (CFU Assay)” value (Salmonella typhimurium; 0.02 μM) was 116.09%, the “% Survival (CFU Assay)” value (Salmonella typhimurium; 0.04 μM) was 126.32% and the “% Survival (CFU Assay)” value (Salmonella typhimurium; 0.08 μM) was 105%. For the same compound, the “% Survival (CFU Assay)” value (Salmonella typhimurium; 0.16 μM) was 71.35%, the “% Survival (CFU Assay)” value (Salmonella typhimurium; 0.32 μM) was 24.68% and the “% Survival (CFU Assay)” value (Salmonella typhimurium; 0.63 μM) was 1.45%. For the same compound, the “% Survival (CFU Assay)” value (Salmonella typhimurium; 1.25 μM) was 0.03%, the “% Survival (CFU Assay)” value (Salmonella typhimurium; 2.5 μM) was <0.002% and the “killing of antibiotic resistant clinical isolates” value [4] was “killed”. For the same compound, the “activity against candida albicans SC5314” value (candida albicans SC5314) was “active”.
